Source: patent US20230321083A1, “Inhibitors of GPR174 and Uses Thereof” (Omeros Corporation, priority 2016, published 2023)

How the values were obtained:
Assay type in all cases: cell-based
CHRM1 = assay: Cellular Redistribution Assay (CRA) against CHRM1; details: FIG. 5B
Source text: (§1) The inventors used a CRA similar to that described in U.S. Pat. No. 7,309,576 and O'Dowd et al., J. Biomol. Screen. 12:175-85, 2007 to identify compounds that are capable of interacting with GPR174 using a library of approximately 370,000 chemical entities. Briefly described, the CRA assay described in U.S. Pat. No. 7,309,576 involves artificially inserting a NLS into the dopamine D1 receptor (DRD1), which allows the receptor to traffic from the cell membrane to the cell interior, and that the binding of antagonists to the receptor retained the receptor at the cell surface, while removal of the ligand allowed the receptor to continue to internalize from the cell surface. Both antagonists and agonists that selectively bound the receptor retained the receptor on the plasma membrane. GPR174 constructs were generated for use in a CRA-based compound screening assay. From this screen, the inventors initially identified compounds of formula I-VI, as described herein and included in TABLE 1.
The inventors also sought to validate that the compounds identified using the CRA are modulatory compounds. To this end, the above-described CRA was used to screen a library for compounds that interact with three control non-orphan receptors, and the results of this screen were compared to the results of screening the same library for compound that were identified using a Fluorometric Imaging Plate Reader (FLIPR) assay, a conventional technique commonly used to identify compounds interacting with non-orphan GPCRs signaling through Ca+. Three non-orphan GPCRs—Muscarinic acetylcholine receptor M1 (CHRM1), Adrenergic receptor alpha 1a (ADRA1a), and Neuropeptide S receptor (NPSR)—were screened against a 10,000-compound GPCR-focused library. Thirty interacting compound “hits” were identified using the CRA, and eighty-one hits were identified using the FLIPR for the CHRM1 receptor; 9 CRA hits and 29 FLIPR hits for the NPS receptor were identified; and 110 CRA hits and 110 FLIPR hits for ADRA1a.
In addition, the CRA can also provide the relative potencies of compounds against the target receptor.

GPR174 [1] = molecular target: T1, GPR174 (Homo sapiens, UniProt Q9BXC1); assay: CRE-Luc reporter Gs signaling assay, cells transfected with GPR174; parameters: host or cells: HEK293 or CHO cell lines (ATCC); details: for effect on Gs pathway in the presence of GPR174: CRE-Luc reporter; for nature of compound in GPR174 signaling assay: human GPR174 with pCRE-Luc
Method: (§2) Compounds were tested in the reporter system with increasing concentrations of GPR174-interacting compounds. GPR174 construct pCMV6-XL4-GPR174 or ADBR2, reporter of interest, pCRE-Luc or GL4.29 (3000 ng), and TK-renilla as an internal control (10 ng) with lipofectamine 2000 (60 ug) (Invitrogen, CA) according to the manufacturer's directions.
(§3) The DNA/lipofectamine 2000 mix (3000 μL) was incubated at room temperature for 30 minutes and then added into a 10 cm culture dish (Corning, NY) containing 70-90% confluent cultured cells, typically HEK293 or CHO cell lines (ATCC, VA), in 15 mL of media. The cells were further incubated for 4-6 hours at 37° C. and then media were removed and cells were detached with 2 mL trypsin (Life Technologies, CA). Media (26 mL) were added to the detached cells and 120 μL of transfected cells were transferred to each well on a 96-well plate. Increasing concentration of each compound in DMSO (1.2 μl) was added to the cells after plating into the 96-well plate. The cells were further incubated at 37° C. for various times. The media were removed and the cells lysed. Luciferase and renilla activities were measured with the Dual-luciferase assay system (Promega, WI) according to the manufacturer's directions. Typically, lysis buffer (25 μL) was added to the cells and incubated at room temperature for 20-30 minutes to allow for the cells to lyse. The lysate (10 μL) was measured for luciferase and renilla activity with LARII and Stop&Glo reagent (50 μL each) with a SpectraMax L (Molecular Devices, CA). Data were analyzed with either Excel (Microsoft, WA) or Prism 4.03 (GraphPad, CA).
(§4) ADBR2 is a GPCR, like GPR174, that activates the Gs signaling pathway.
Target sequence in this assay (Q9BXC1 whole entry): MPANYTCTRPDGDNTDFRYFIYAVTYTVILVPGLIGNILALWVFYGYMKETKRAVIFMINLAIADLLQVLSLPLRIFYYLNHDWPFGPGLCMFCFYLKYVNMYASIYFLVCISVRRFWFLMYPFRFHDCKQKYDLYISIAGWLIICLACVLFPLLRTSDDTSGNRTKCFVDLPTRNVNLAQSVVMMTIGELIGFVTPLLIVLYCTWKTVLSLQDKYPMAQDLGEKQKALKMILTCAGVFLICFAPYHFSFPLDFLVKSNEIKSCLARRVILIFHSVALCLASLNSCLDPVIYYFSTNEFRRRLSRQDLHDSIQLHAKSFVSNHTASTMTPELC

GPR174 [2] = molecular target: T1, GPR174; assay: Cellular Redistribution Assay (CRA) against GPR174; parameters: fused on or other part: No tag or reporter is given; details: FIG. 5A
Source text: One method for identifying compounds capable of modulating a receptor is using a cellular redistribution assay (“CRA”). Exemplary CRA methods are found in U.S. Pat. No. 7,309,576 issued to O'Dowd et al. and in O'Dowd et al., J. Biomol. Screen. 12:175-85, 2007. […] Incorporation of the NLS alters the cellular localization of the GPCR, such that the majority of the NLS-modified receptor is present in the cell interior. An NLS-modified GPCR, when interacting with a functionally active compound, is mostly localized on the cell surface. Thus, it becomes possible to identify receptor modulators without knowledge of the endogenous ligand or a surrogate ligand.
The inventors have identified a number of compounds that inhibit GPR174 using a CRA assay similar to that described in U.S. Pat. No. 7,309,576 and in O'Dowd et al., J. Biomol. Screen. 12:175-85, 2007. These compounds are described in detail below.
as §1
Target sequence in this assay (Q9BXC1 1-290 limits assumed): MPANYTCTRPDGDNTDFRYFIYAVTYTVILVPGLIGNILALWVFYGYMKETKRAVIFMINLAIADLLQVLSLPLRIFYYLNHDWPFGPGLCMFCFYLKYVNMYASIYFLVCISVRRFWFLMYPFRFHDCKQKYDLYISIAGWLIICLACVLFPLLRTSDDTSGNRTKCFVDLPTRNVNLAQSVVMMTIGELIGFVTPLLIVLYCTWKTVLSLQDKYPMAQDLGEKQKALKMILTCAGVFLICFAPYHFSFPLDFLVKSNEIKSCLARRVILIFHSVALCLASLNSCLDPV

ADBR2 [3] = molecular target: T2, ADBR2 (Homo sapiens, UniProt P07550); assay: GloSensor assay, ADBR2 control
T2 construct: host or cells: HEK293 or CHO cell lines (ATCC)
Method: (§5) In order to confirm that GPR174 interacting compound #4 is an antagonist of GPR174-mediated Gs signaling, a GloSensor assay was carried out with increasing concentrations of compound #4 in the presence or absence of a fixed concentration (1 μM) of the GPR174 agonist LysoPS as follows.
(§6) The GloSensor Assay was performed by transiently transfecting the GPR174 construct, pCMV6-XL4-GPR174 or ADBR2, pGlo22 (300 ng) (Promega) with lipofectamine 2000 (60 μg) (Invitrogen, CA) according to the manufacturer's directions. The DNA/lipofectamine 2000 mix (3000 μL) was incubated at room temperature for 30 minutes and then added into a 10 cm culture dish (Corning, NY) containing 70-90% confluent cultured cells, typically HEK293 or CHO cell lines (ATCC, VA), in 15 mL of media. […] The cells were then incubated at room temperature for 2 hours and the cell plates were pre-read with a SpectraMax L (Molecular Devices, CA). After the pre-read, increasing concentrations of each compound in DMSO (1.0 μl) was added to the cells. The cell plates containing the compound were read immediately after the compound was added and at various times up to 30 minutes after the addition of the compound with a SpectraMax L (Molecular Devices, CA). Data were analyzed with either Excel (Microsoft, WA) or Prism 4.03 (GraphPad, CA).

human PBMCs = assay: Cytokines in culture supernatants of stimulated human PBMCs (ELISA / LEGENDplex); details: data not shown
Method: The effect of compound #10 on IL-2 and IFN-γ production in human PBMCs was determined as follows. PBMCs from a single donor were adjusted to a density of 2×10^6 cells/mL, stimulated with 100 ng/mL of anti-CD3 and 100 ng/mL of anti-CD28 antibodies and treated with 1 μM, 3 μM, or 10 μM of compound #10. Supernatant from these cells was taken on day 2 post-stimulation and the levels of IL-2 and IFN-γ were determined by ELISA assay using Ready-SET-Go ELISA kits from Affimetrix Ebioscience according to the manufacturer's instructions.
The effect of compound #10 on IL-2 production in human PBMCs was determined as follows. […] Supernatant from these cells was taken on day 3 post-stimulation and the levels of IL-2 were determined by ELISA assay using Ready-SET-Go™ ELISA kits from Affimetrix Ebioscience and LEGENDplex™ bead-based immunoassays from BioLegend according to the manufacturer's instructions.
The effect of compound #10 on IL-2 production in human PBMC from each donor was determined as follows. PBMC from each donor were adjusted to a density of 2×10^6 cells/mL, stimulated with 100 ng/mL of anti-CD3 and 100 ng/mL of anti-CD28 antibodies and treated with 30 μM compound #10. Supernatant from these cells was taken on day 2 post-stimulation and the levels of IL-2 were determined by ELISA assay using LEGENDplex™ bead-based immunoassays from BioLegend (San Diego, CA) according to the manufacturer's instructions.
The effect of compound #10 on the production of a panel of additional cytokines (interleukin 5 (IL-5), interleukin 13 (IL-13), interleukin 6 (IL-6), interleukin 9 (IL-9), interleukin 10 (IL-10), interferon gamma (IFN-γ), tumor necrosis factor alpha (TNF-α), interleukine 17A (IL-17A), interleukin 17F (IL-17F), interleukin 4 (IL-4) and interleukin 22 (IL-22)) in pooled human PBMC obtained from eight donors was determined as follows. PBMC from eight donors were pooled, then adjusted to a density of 2×10^6 cells/mL, stimulated with 100 ng/mL of anti-CD3 and 100 ng/mL of anti-CD28 antibodies and treated with 30 μM compound #10. Supernatant from these cells was taken on day 2 post-stimulation and the levels of IL-5, IL-13, IL-6, IL-9, IL-10, IFN-γ, TNF-α, IL-17A, IL-17F, IL-4 and IL-22 were determined by ELISA using LEGENDplex™ bead-based immunoassays from BioLegend (San Diego, CA) according to the manufacturer's instructions.

ADBR2 [4] = molecular target: T2, ADBR2; assay: CRE-Luc reporter Gs signaling assay, control receptor ADBR2
Method: as §2, §3, §4

GPR174 [5] = molecular target: T1, GPR174; assay: GloSensor assay, GPR174, with or without LysoPS; parameters: host or cells: HEK293 or CHO cell lines (ATCC)
Method: as §5, §6
Target sequence in this assay (Q9BXC1 whole entry, species assumed): as the sequence (Q9BXC1 whole entry) above

| Molecule | activity in CRA against CHRM1 (CHRM1) | Human GPR174 CRE Activity: nature of compound (GPR174 [1]) | dose-response in CRA against GPR174 (GPR174 [2]) | modulation of Gs signaling in the presence of ADBR (GloSensor) (ADBR2 [3]) | IL-2 levels in PBMC cultures (human PBMCs) | effect on Gs pathway in the presence of GPR174 (GPR174 [1]) | effect on Gs pathway in the presence of ADBR2 (ADBR2 [4]) | modulation of Gs pathway in the presence of GPR174 (GloSensor) (GPR174 [5]; compound alone) | competition with GPR174 agonist LysoPS (GloSensor) (GPR174 [5]; fixed 1 μM LysoPS) | nature of compound in GPR174 signaling assay (GPR174 [1]) |
| --- | --- | --- | --- | --- | --- | --- | --- | --- | --- | --- |
| CC(=O)c1ccc(N2CCN(C(=O)c3ccc(F)cc3)CC2)c(F)c1 [Compound 3] | do not show any activity against CHRM1 | Antagonist or allosteric modulator | show a dose-response curve against GPR174 | – | – | – | – | – | – | – |
| lysophosphatidylserine [LysoPS, reference compound] | – | – | – | neither compound #4 nor LysoPS modulate Gs signaling | – | – | – | – | – | – |
| O=C(c1ccccc1)N1CCN(c2cc(N3CCCCC3)c(F)cc2[N+](=O)[O-])CC1 [Compound 6] | – | – | – | – | increased IL-2 levels | inhibited the Gs pathway | did not inhibit the Gs pathway | – | – | – |
| CCOC(=O)N1CCN(c2cc(N3CCC(C)CC3)c(F)cc2[N+](=O)[O-])CC1 [Compound 1] | do not show any activity against CHRM1 | – | show a dose-response curve against GPR174 | – | – | inhibited the Gs pathway | did not inhibit the Gs pathway | – | – | – |
| CCCC(=O)c1ccc(N2CCN(S(=O)(=O)c3ccc(C)cc3)CC2)c(F)c1 [Compound 4] | do not show any activity against CHRM1 | Antagonist | show a dose-response curve against GPR174 | neither compound #4 nor LysoPS modulate Gs signaling | – | did not modulate the Gs pathway | did not modulate the Gs pathway | does not modulate the Gs pathway | does compete with the GPR174 agonist LysoPS | GPR174 antagonist |
| Cc1ccccc1Nc1nnc(-c2ccc(C)c(S(N)(=O)=O)c2)c2ccccc12 [Compound 20] | do not show any activity against CHRM1 | Antgonist or allosteric modulator | show a dose-response curve against GPR174 | – | – | – | – | – | – | non-modulators |
| CC(=O)N1CCN(c2cc(N3CCCCC3)c(F)cc2[N+](=O)[O-])CC1 [Compound 2] | do not show any activity against CHRM1 | – | show a dose-response curve against GPR174 | – | – | inhibited the Gs pathway | did not inhibit the Gs pathway | – | – | – |
